Results from PubChem BioAssay AID330 (DTP/NCI, 2004).
“And” between values parts separate entries of the source, which are not always exact repeats. Equal values may be shown once. Toxic doses and inconclusive results are not listed. The calls were made as follows: active = survival T/C of 150% or more; inactive = T/C below 125% in these data.

Tested on: P388 leukemia ip, CD2F1 mice, survival T/C
Test: NCI In Vivo Anticancer Drug Screen. Data for tumor model P388 Leukemia (intraperitoneal) in CD2F1 (CDF1) mice
Settings: endpoint: median survival time, higher = longer survival
Summary of the method: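 Mice carrying the transplanted tumor received test compound or vehicle. Survival was recorded in each group, and the value is the treated-group measurement divided by that of the vehicle-treated control group.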

[1] = dose: 50.0 mg/kg/injection, schedule: Q01DX009 (ip), vehicle: Klucel (hydroxypropylcellulose) (HPC)
[2] = dose: 100.0 mg/kg/injection, schedule: Q01DX009 (ip), vehicle: Klucel (hydroxypropylcellulose) (HPC)
[3] = dose: 200.0 mg/kg/injection, schedule: Q01DX009 (ip), vehicle: Klucel (hydroxypropylcellulose) (HPC)

Measured: T/C

C[C@@H](CN1CC(=O)NC(=O)C1)N1CC(=O)NC(=O)C1
inactive: dose: 0.06 mg/kg/injection, schedule: Q01DX009 (ip), vehicle: Klucel (hydroxypropylcellulose) (HPC) 108 % of control | dose: 0.12 mg/kg/injection, schedule: Q01DX009 (ip), vehicle: Klucel (hydroxypropylcellulose) (HPC) 101 % of control | dose: 0.25 mg/kg/injection, schedule: Q01DX009 (ip), vehicle: Klucel (hydroxypropylcellulose) (HPC) 111 % of control | dose: 0.5 mg/kg/injection, schedule: Q01DX009 (ip), vehicle: Klucel (hydroxypropylcellulose) (HPC) 115 % of control | dose: 1.0 mg/kg/injection, schedule: Q01DX009 (ip), vehicle: Klucel (hydroxypropylcellulose) (HPC) 121 % of control | dose: 16.0 mg/kg/injection, schedule: Q01DX005 (iv), vehicle: suspension in saline 117 % of control | dose: 32.0 mg/kg/injection, schedule: Q01DX005 (iv), vehicle: suspension in saline 119 % of control | [3] 113 % of control and 92 % of control | dose: 256.0 mg/kg/injection, schedule: Q01DX001 (ip), vehicle: Klucel (hydroxypropylcellulose) (HPC) 97 % of control | dose: 400.0 mg/kg/injection, schedule: Q01DX009 (ip), vehicle: Klucel (hydroxypropylcellulose) (HPC) 92 % of control | dose: 512.0 mg/kg/injection, schedule: Q01DX001 (ip), vehicle: Klucel (hydroxypropylcellulose) (HPC) 122 % of control
active: dose: 4.0 mg/kg/injection, schedule: Q01DX009 (ip), vehicle: Klucel (hydroxypropylcellulose) (HPC) 154 % of control | dose: 8.0 mg/kg/injection, schedule: Q01DX009 (ip), vehicle: Klucel (hydroxypropylcellulose) (HPC) 159 % of control | dose: 16.0 mg/kg/injection, schedule: Q01DX009 (ip), vehicle: Klucel (hydroxypropylcellulose) (HPC) 187 % of control | dose: 25.0 mg/kg/injection, schedule: Q01DX009 (ip), vehicle: Klucel (hydroxypropylcellulose) (HPC) 178 % of control | dose: 32.0 mg/kg/injection, schedule: Q01DX009 (ip), vehicle: Klucel (hydroxypropylcellulose) (HPC) 218 % of control | [1] 166 % of control and 221 % of control | dose: 64.0 mg/kg/injection, schedule: Q01DX009 (ip), vehicle: Klucel (hydroxypropylcellulose) (HPC) 218 % of control | [2] 200 % of control | dose: 128.0 mg/kg/injection, schedule: Q01DX005 (ip), vehicle: suspension in saline 161 % of control and 177 % of control | dose: 128.0 mg/kg/injection, schedule: Q01DX009 (ip), vehicle: Klucel (hydroxypropylcellulose) (HPC) 229 % of control | dose: 256.0 mg/kg/injection, schedule: Q01DX005 (ip), vehicle: suspension in saline 194 % of control and 208 % of control | dose: 256.0 mg/kg/injection, schedule: Q01DX005 (iv), vehicle: suspension in saline 171 % of control and 180 % of control | dose: 512.0 mg/kg/injection, schedule: Q01DX005 (ip), vehicle: suspension in saline 177 % of control | dose: 512.0 mg/kg/injection, schedule: Q01DX005 (iv), vehicle: suspension in saline 171 % of control | dose: 600.0 mg/kg/injection, schedule: Q04DX003 (ip), vehicle: saline 205 % of control | dose: 2048.0 mg/kg/injection, schedule: Q01DX001 (ip), vehicle: Klucel (hydroxypropylcellulose) (HPC) 159 % of control

CCCCN(CCO)CC(O)Cn1cnc2c(N)ncnc21 (configuration not stated)
inactive: dose: 60.0 mg/kg/injection, schedule: Q01DX005 (ip), vehicle: Klucel (hydroxypropylcellulose) (HPC) 94 % of control | dose: 120.0 mg/kg/injection, schedule: Q01DX005 (ip), vehicle: Klucel (hydroxypropylcellulose) (HPC) 87 % of control | dose: 240.0 mg/kg/injection, schedule: Q01DX005 (ip), vehicle: Klucel (hydroxypropylcellulose) (HPC) 87 % of control

CN(C)CC1CCC2=C(C1=O)C(c1ccc(Cl)c(Cl)c1)C1=C(CCC(CN(C)C)C1=O)O2 (configuration not stated)
inactive: dose: 60.0 mg/kg/injection, schedule: Q01DX005 (ip), vehicle: suspension in saline 100 % of control | dose: 120.0 mg/kg/injection, schedule: Q01DX005 (ip), vehicle: suspension in saline 106 % of control | dose: 240.0 mg/kg/injection, schedule: Q01DX005 (ip), vehicle: suspension in saline 99 % of control

O=NN(Cc1ccc(Cl)cc1)NC1=NCCN1
inactive: [1] 98 % of control | [2] 99 % of control | [3] 105 % of control

O=C(NN1CCCCC1)NN1CCCCC1
inactive: dose: 50.0 mg/kg/injection, schedule: Q01DX005 (ip), vehicle: saline with Tween-80 101 % of control | dose: 100.0 mg/kg/injection, schedule: Q01DX005 (ip), vehicle: saline with Tween-80 100 % of control | dose: 200.0 mg/kg/injection, schedule: Q01DX005 (ip), vehicle: saline with Tween-80 100 % of control

CC(NNC(=S)N1CCCCCC1)c1ccc2ccccc2n1 (configuration not stated)
inactive: dose: 50.0 mg/kg/injection, schedule: Q01DX005 (ip), vehicle: Klucel (hydroxypropylcellulose) (HPC) 111 % of control | dose: 100.0 mg/kg/injection, schedule: Q01DX005 (ip), vehicle: Klucel (hydroxypropylcellulose) (HPC) 110 % of control and 122 % of control and 95 % of control | dose: 200.0 mg/kg/injection, schedule: Q01DX005 (ip), vehicle: Klucel (hydroxypropylcellulose) (HPC) 112 % of control and 113 % of control
